# Measurements from ChEMBL document CHEMBL5226375, “Synthesis and Comprehensive in Vivo Activity Profiling of Olean-12-en-28-ol, 3β-Pentacosanoate in Experimental Autoimmune Encephalomyelitis: A Natural Remyelinating and Anti-Inflammatory Agent” (J Nat Prod, 2023).
# Active and inactive are the calls of the source. No cut-off for these calls is given here.
# Legend:
# Mus musculus [1] = assay: Anti-inflammatory activity against MOG35-55-induced experimental autoimmune encephalomyelitis C57BL/6 mouse model assessed as fold change in PLP gene expression in brain at 600 mg/kg/day, ig for 14 days starting from 12th day of immunization by RT-qPCR analysis relative to control; format: functional; conditions: time 14 day
# Mus musculus [2] = assay: Anti-inflammatory activity against MOG35-55-induced experimental autoimmune encephalomyelitis C57BL/6 mouse model assessed as fold change in C1S gene expression in brain at 300 mg/kg/day, ig for 14 days starting from 12th day of immunization by RT-qPCR analysis relative to control; format: functional; conditions: time 14 day
# Mus musculus [3] = assay: Anti-inflammatory activity against MOG35-55-induced experimental autoimmune encephalomyelitis C57BL/6 mouse model assessed as fold change in NFKB gene expression in brain at 600 mg/kg/day, ig for 14 days starting from 12th day of immunization by RT-qPCR analysis relative to control; format: functional; conditions: time 14 day
# [4] = Stability of the compound in THF/phosphate buffer at pH 7.4 incubated for 2 hrs under stirring conditions by 1H-NMR analysis; format: physicochemical; conditions: pH 7.4, 2 h
# Mus musculus [5] = assay: Anti-inflammatory activity against MOG35-55-induced experimental autoimmune encephalomyelitis C57BL/6 mouse model assessed as fold change in MAG gene expression in brain at 300 mg/kg/day, ig for 14 days starting from 12th day of immunization by RT-qPCR analysis relative to control; format: functional; conditions: time 14 day
# Mus musculus [6] = assay: Anti-inflammatory activity against MOG35-55-induced experimental autoimmune encephalomyelitis C57BL/6 mouse model assessed as fold change in GFAP gene expression in brain at 600 mg/kg/day, ig for 14 days starting from 12th day of immunization by RT-qPCR analysis relative to control; format: functional; conditions: time 14 day
# Mus musculus [7] = assay: Anti-inflammatory activity against MOG35-55-induced experimental autoimmune encephalomyelitis C57BL/6 mouse model assessed as reduction in serum chemokines level by measuring reduction in IL-3 level at 600 mg/kg/day, ig for 14 days starting from 12th day of immunization by ELISA; format: functional, organism-based; conditions: time 14.0 day
# Mus musculus [8] = assay: Anti-inflammatory activity against MOG35-55-induced experimental autoimmune encephalomyelitis C57BL/6 mouse model assessed as fold change in CXCL9 gene expression in brain at 600 mg/kg/day, ig for 14 days starting from 12th day of immunization by RT-qPCR analysis relative to control; format: functional; conditions: time 14 day
# Mus musculus [9] = assay: Anti-inflammatory activity against MOG35-55-induced experimental autoimmune encephalomyelitis C57BL/6 mouse model assessed as methylation of CpG sites of SOCS5 gene promoter in brain at 600 mg/kg, ig for 14 days starting from 12th day of immunization by PCR analysis (reference value: 10.6 +/-4%); format: functional; conditions: time 14 day
# Mus musculus [10] = assay: Anti-inflammatory activity against MOG35-55-induced experimental autoimmune encephalomyelitis C57BL/6 mouse model assessed as reduction in serum chemokines level by measuring reduction in FASL level at 600 mg/kg/day, ig for 14 days starting from 12th day of immunization by ELISA; format: functional, organism-based; conditions: time 14.0 day
# Mus musculus [11] = assay: Anti-inflammatory activity against MOG35-55-induced experimental autoimmune encephalomyelitis C57BL/6 mouse model assessed as proportion of brain infiltrating cells expressing CD45+/CD11b/c high surface markers at 600 mg/kg/day, ig for 14 days starting from 12th day of immunization by flow cytometry (reference value: 87.7%); format: functional; conditions: time 14 day
# Mus musculus [12] = assay: Anti-inflammatory activity against MOG35-55-induced experimental autoimmune encephalomyelitis C57BL/6 mouse model assessed as fold change in H2EB1 (HLA-DRB1) gene expression in brain at 600 mg/kg/day, ig for 14 days starting from 12th day of immunization by RT-qPCR analysis relative to control; format: functional; conditions: time 14 day
# Mus musculus [13] = assay: Anti-inflammatory activity against MOG35-55-induced experimental autoimmune encephalomyelitis C57BL/6 mouse model assessed as reduction in serum chemokines level by measuring reduction in CXCL1 level at 600 mg/kg/day, ig for 14 days starting from 12th day of immunization by ELISA; format: functional, organism-based; conditions: time 14.0 day
# Mus musculus [14] = assay: Anti-inflammatory activity against MOG35-55-induced experimental autoimmune encephalomyelitis C57BL/6 mouse model assessed as increase in serum IL-10 level at 600 mg/kg/day, ig for 14 days starting from 12th day of immunization by ELISA; format: functional, organism-based; conditions: time 14.0 day
# Mus musculus [15] = assay: Anti-inflammatory activity against MOG35-55-induced experimental autoimmune encephalomyelitis C57BL/6 mouse model assessed as methylation of CpG sites of […] gene promoter in brain at 600 mg/kg, ig for 14 days starting from 12th day of immunization by PCR analysis (reference value: 45 +/-7%); format: functional; conditions: time 14 day
# Mus musculus [16] = assay: Anti-inflammatory activity against MOG35-55-induced experimental autoimmune encephalomyelitis C57BL/6 mouse model assessed as methylation of CpG sites of […] gene promoter in brain at 600 mg/kg, ig for 14 days starting from 12th day of immunization by PCR analysis (reference value: 13.1 +/-8%); format: functional; conditions: time 14 day
# Mus musculus [17] = assay: Anti-inflammatory activity against MOG35-55-induced experimental autoimmune encephalomyelitis C57BL/6 mouse model assessed as fold change in CXCL10 gene expression in brain at 300 mg/kg/day, ig for 14 days starting from 12th day of immunization by RT-qPCR analysis relative to control; format: functional; conditions: time 14 day
# Mus musculus [18] = assay: Anti-inflammatory activity against MOG35-55-induced experimental autoimmune encephalomyelitis C57BL/6 mouse model assessed as fold change in CXCL9 gene expression in brain at 0.15 mg/kg/day, ig for 14 days starting from 12th day of immunization by RT-qPCR analysis relative to control; format: functional; conditions: time 14 day
# Mus musculus [19] = assay: Anti-inflammatory activity against MOG35-55-induced experimental autoimmune encephalomyelitis C57BL/6 mouse model assessed as fold change in C1S gene expression in brain at 0.3 mg/kg/day, ig for 14 days starting from 12th day of immunization by RT-qPCR analysis relative to control; format: functional; conditions: time 14 day
# Mus musculus [20] = assay: Anti-inflammatory activity against MOG35-55-induced experimental autoimmune encephalomyelitis C57BL/6 mouse model assessed as fold change in MMP9 gene expression in brain at 0.3 mg/kg/day, ig for 14 days starting from 12th day of immunization by RT-qPCR analysis relative to control; format: functional; conditions: time 14 day
# Mus musculus [21] = assay: Anti-inflammatory activity against MOG35-55-induced experimental autoimmune encephalomyelitis C57BL/6 mouse model assessed as fold change in H2EB1 (HLA-DRB1) gene expression in brain at 0.3 mg/kg/day, ig for 14 days starting from 12th day of immunization by RT-qPCR analysis relative to control; format: functional; conditions: time 14 day
# Mus musculus [22] = assay: Anti-inflammatory activity against MOG35-55-induced experimental autoimmune encephalomyelitis C57BL/6 mouse model assessed as fold change in MAG gene expression in brain at 0.3 mg/kg/day, ig for 14 days starting from 12th day of immunization by RT-qPCR analysis relative to control; format: functional; conditions: time 14 day
# Mus musculus [23] = assay: Anti-inflammatory activity against MOG35-55-induced experimental autoimmune encephalomyelitis C57BL/6 mouse model assessed as reduction in serum chemokines level by measuring reduction in FASL level at 0.3 mg/kg/day, ig for 14 days starting from 12th day of immunization by ELISA; format: functional, organism-based; conditions: time 14.0 day
# Mus musculus [24] = assay: Anti-inflammatory activity against MOG35-55-induced experimental autoimmune encephalomyelitis C57BL/6 mouse model assessed as fold change in HIF1A gene expression in brain at 0.3 mg/kg/day, ig for 14 days starting from 12th day of immunization by RT-qPCR analysis relative to control; format: functional; conditions: time 14 day
compound,measurement,setting,value
CCCCCCCCCCCCCCCCCCCCCCCCC(=O)O[C@H]1CC[C@]2(C)[C@H]3CC=C4[C@@H]5CC(C)(C)CC[C@]5(CO)CC[C@@]4(C)[C@]3(C)CC[C@H]2C1(C)C,fold change (FC),Mus musculus [1],1.14
same,fold change (FC),Mus musculus [2],1.63
same,fold change (FC),Mus musculus [3],1.46
same,Stability,[4],Stable
same,fold change (FC),Mus musculus [5],1.54
same,fold change (FC),Mus musculus [6],1.79
same,Activity,Mus musculus [7],Active
same,fold change (FC),Mus musculus [8],-1.14
same,Activity,Mus musculus [9],9.3%
same,Activity,Mus musculus [10],Active
same,Activity,Mus musculus [11],66.2%
same,fold change (FC),Mus musculus [12],11.4
same,Activity,Mus musculus [13],Active
same,Activity,Mus musculus [14],Active
same,Activity,Mus musculus [15],44.7%
same,Activity,Mus musculus [16],15.2%
same,fold change (FC),Mus musculus [17],3.24
CCCCCCCCc1ccc(CCC(N)(CO)CO)cc1 [FINGOLIMOD],fold change (FC),Mus musculus [18],2.86
same,fold change (FC),Mus musculus [19],2.12
same,fold change (FC),Mus musculus [20],4.44
same,fold change (FC),Mus musculus [21],13.9
same,fold change (FC),Mus musculus [22],-3.16
same,Activity,Mus musculus [23],Active
same,fold change (FC),Mus musculus [24],1.86
